We go through one compound from patent publication US8637038B2, “Methods for inhibiting allograft rejection” (Rigel Pharmaceuticals, Inc., priority 2011, dated 2014).

The data set is described as follows: Five-day heart allograft study: side effects (clinical chemistry). The format is in vivo, rat. The note with it: five days. As to the method: Compound I and Compound III were provided by Rigel (South San Francisco, Calif.) and Tacrolimus was provided by Astellas (Munich, Germany). All drugs were administrated orally each in two different concentrations: Compound I LD (15 mg/kg BID; n=6) and HD (60 mg/kg BID; n=6); Compound III LD (5 mg/kg BID; n=6) and HD (20 mg/kg BID; n=6); Tac LD (1 mg/kg QD; n=6) and HD (4 mg/kg QD; n=6). Administration of all drugs was performed every day at the same time points. Tacrolimus was applied only once a day (QD) every 24 hours. During administration of Compound I (BID) and Compound III (BID) a 12 hour pause was kept in between each drug application.
Lew recipients of heterotopic BN heart transplants were randomly assigned to their group. Animals were either left untreated (groups 1 and 2; see Table 1,5-day study) or received their group specific medication (groups 3-8; see Table 1,5-day study) by oral application. An untreated syngeneic transplant group Lew-Lew was generated as control.
EDTA samples and sera were taken five days after transplantation for differential blood count, BUN, Creatinine, Cholesterol, HDL, LDL, Triglycerides, AST, and ALT, respectively. Analyses were performed by standard clinical chemistry procedures.

`COc1cc(Nc2ncc(C)c(Nc3ccc4oc(=O)[nH]c4c3)n2)cc(C)c1C` [Compound III, 5-(2-(3-methoxy-4,5-dimethylphenylamino)-5-methylpyrimidin-4-ylamino)benzol[d]oxazol-2-(3H)-one]: for the setting “HD (Compound I 60 mg/kg BID, Compound III 20 mg/kg BID, Tac 4 mg/kg QD), no medication mean 26.0”, the “serum HDL, mean” value is 46.3 mg/dL. Moreover, the “serum LDL, mean” value (LD (Compound III 5 mg/kg BID, Tac 1 mg/kg QD)) was 19.6 mg/dL.
